Molecular target: T1, MARK2 (Homo sapiens, UniProt Q7KZI7)
T1 construct: purchased Thermo Fisher Scientific (Life Technologies) SelectScreen
Assay: SelectScreen Z'LYTE
Assay type: biochemical
Outline: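 NU5455 was profiled across the SelectScreen Broad panel of kinase activity and binding assays. Z'LYTE reactions such as CSF1R ran at apparent Km ATP, while the Adapta CAMK1 assay used ATP listed as 10. Values are given as percent.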

T1 sequence (Q7KZI7 whole entry): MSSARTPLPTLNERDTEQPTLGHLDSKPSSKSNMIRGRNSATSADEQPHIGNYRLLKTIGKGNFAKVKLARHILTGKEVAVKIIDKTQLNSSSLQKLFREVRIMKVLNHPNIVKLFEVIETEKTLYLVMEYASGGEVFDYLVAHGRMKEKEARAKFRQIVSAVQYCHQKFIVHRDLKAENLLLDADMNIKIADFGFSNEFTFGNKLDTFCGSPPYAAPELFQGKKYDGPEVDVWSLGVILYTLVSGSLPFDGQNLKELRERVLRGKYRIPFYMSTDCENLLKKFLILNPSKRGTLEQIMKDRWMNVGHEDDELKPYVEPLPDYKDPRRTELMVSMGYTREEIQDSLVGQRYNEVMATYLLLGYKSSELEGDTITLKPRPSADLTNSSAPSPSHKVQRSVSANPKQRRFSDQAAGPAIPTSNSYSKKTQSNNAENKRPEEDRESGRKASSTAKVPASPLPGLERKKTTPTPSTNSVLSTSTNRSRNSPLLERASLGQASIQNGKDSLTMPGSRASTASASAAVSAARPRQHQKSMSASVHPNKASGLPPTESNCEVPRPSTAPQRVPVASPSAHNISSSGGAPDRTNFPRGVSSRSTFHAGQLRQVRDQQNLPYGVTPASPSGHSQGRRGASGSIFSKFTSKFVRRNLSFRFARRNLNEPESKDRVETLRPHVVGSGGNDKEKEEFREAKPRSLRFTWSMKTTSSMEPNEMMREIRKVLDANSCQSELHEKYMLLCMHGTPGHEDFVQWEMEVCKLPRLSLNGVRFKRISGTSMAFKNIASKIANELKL

Work on `CN(C(=O)CN1CCOCC1)c1ccc2sc3c(-c4cccc5c(=O)cc(N6CC7CCC(C6)O7)oc45)cccc3c2c1` [NU5455] yielded an inhibition at 1 µM of 0.1%.
